According to US6693123B2 (University of Pittsburgh, priority 1995, dated 2004):
Counter-ions that a name gives are not always drawn. Like-named read-outs stand apart in the source and are kept apart here.

Target: T1, Rat brain protein farnesyltransferase (Rattus norvegicus, UniProt Q02293+Q04631)
T1 construct: The enzyme is purified according to Reiss, Y., et al., Cell, 62: 81-88 (1990), utilizing steps one through three; from tissue; host or cells: rat brain
Test: In vitro inhibition of protein farnesyltransferase, Amersham scintillation proximity assay with biotin-K Ras B fragment
Format: biochemical
Conditions: for inhibition at 0.1 µM: read-out: % inhibition at 1 × 10^−7 M; for inhibition at 1 µM: read-out: % inhibition at 1 × 10^−6 M; for inhibition at 0.01 µM: compound at 1 × 10^−8 M (Table 4), read-out: % inhibition at 1 × 10^−8 M

[1] = Inhibition of farnesyltransferase, compound at 1 × 10^−6 M (Table 2)
[2] = Inhibition of farnesyltransferase

Q: For `CSCC[C@H](NC(=O)c1ccc(CCc2cncc3ccccc23)cc1-c1ccccc1C)C(=O)O` [Example 492, N-[4-(2-Isoquinolin-4-ylethyl)-2-(2-methylphenyl)benzoyl]methionine Lithium Salt], which inhibition at 0.1 µM is on record?
A: 95%

Q: How did the inhibition at 1 µM [1] turn out when `CSCC[C@H](NC(=O)c1ccc(OCc2cccnc2)cc1-c1ccccc1)C(=O)O` [Example 240, [4-(3-Pyridylmethyloxy)-2-phenylbenzoyl-]methionine] was run?
A: 98%

Q: `CSCC[C@H](NC(=O)c1ccc(CSc2cccnc2)cc1-c1ccccc1C)C(=O)NS(=O)(=O)c1ccccc1` [Example 325] was tested. Which inhibition at 1 µM [1] did it give?
A: 99%

Q: `CSCC[C@H](NC(=O)c1ccc(/C=C/c2cnccc2N(C)C)cc1-c1ccccc1)C(=O)O` [Example 214, {4-[2-(4-Dimethylaminopyrid-3-yl)ethenyl]-2-phenylbenzoyl}methionine Sodium Salt] was tested. Which inhibition at 1 µM did it give?
A: 97%

Q: For `CSCC[C@H](NC(=O)c1ccc(CN(Cc2ccccc2)c2cccnc2)cc1-c1ccccc1C(F)(F)F)C(=O)O` [Example 409, [4-(N-Benzyl-N-3-pyridylaminomethyl)-2-(2-trifluoromethylphenyl)benzoyl]methionine], which inhibition at 0.01 µM [2] is on record?
A: 84%

Q: How did the inhibition at 1 µM [1] turn out when `COC(=O)[C@H](CCSC)NC(=O)c1ccc(/C=C/c2cccnc2)cc1-c1ccccc1` [Example 210, {4-[2-(Pyrid-3-yl)ethenyl]-2-phenylbenzoyl}methionine Methyl Ester] was run?
A: 5%

Q: How did the inhibition at 0.01 µM [2] turn out when `CSCC[C@H](NC(=O)c1ccc(CN(Cc2ccccc2)c2cncc(F)c2)cc1-c1ccccc1C)C(=O)O` [Example 410, [4-(N-Benzyl-N-3-(5-fluorolpyridyl)aminomethyl)-2-(2-methylphenyl)benzoyl]methionine] was run?
A: 94%

Q: How did the “% inhibition at 1 × 10^−6 M” value [1] turn out when `CSCC[C@H](NC(=O)c1ccc(COc2cccnc2)cc1-c1ccccc1)C(=O)OCc1oc(=O)oc1C` [Example 326, [4-(3-Pyridyloxymethyl)-2-phenylbenzoyl]methionine O-Dimethylvinylene Carbonate Ester] was run?
A: 91%

Q: Which inhibition at 1 µM does the source give for `CSCC[C@H](NC(=O)c1ccc(/C=C/c2cncc(Br)c2)cc1-c1ccccc1)C(=O)O` [Example 215, {4-[2-(5-Bromopyrid-3-yl)ethenyl]-2-phenylbenzoyl}methionine Sodium Salt] here?
A: 82%

Q: How did the inhibition at 1 µM [1] turn out when `COC(=O)[C@H](CCSC)N(C)C(=O)c1ccc(CNc2cccnc2)cc1-c1ccccc1` [Example 158, [4-(3-Pyridylaminomethylene)-2-phenylbenzoyl]-N-methylmetionine Methyl Ester] was run?
A: 2%

Q: `CSCC[C@H](NC(=O)c1ccc(COc2cccnc2)cc1-c1ccccc1C(F)(F)F)C(=O)O` [Example 304, [4-(3-Pyridyloxymethyl)-2-(2-trifluoromethylphenyl)benzoyl]methionine] was tested. Which inhibition at 1 µM did it give?
A: 99%

Q: How did the “% inhibition at 1 × 10^−6 M” value [1] turn out when `Cc1ccccc1-c1cc(COc2cccnc2)ccc1C(=O)N[C@@H](CCC(N)=O)C(=O)O` [Example 313, (S)-2-N-[4-(3-Pyridyloxymethyl)-2-(2-methyl)phenylbenzoyl]amino-4-(aminocarbonyl)butanoic Acid] was run?
A: 94%

Q: With “[4-(3-Pyridyloxymethyl)-2-phenylbenzoyl]cysteine Disodium Salt [Example 188]” as the molecule, how does the “% inhibition at 1 × 10^−6 M” value [1] read?
A: 40%

Q: For `CSCC[C@H](NC(=O)c1ccc(CCc2cnccc2C(O)c2ccccc2)cc1-c1ccccc1C)C(=O)O` (stereo partly drawn) [Example 485, N-[4-(2-(4-α-Hydroxybenzyl)pyrid-3-ylethyl)-2-(2-methylphenyl)benzoyl]methionine Lithium Salt], which inhibition at 0.1 µM (Inhibition of farnesyltransferase, compound at 1 × 10^−7 M (Table 3)) is on record?
A: 96%

Q: Which inhibition at 1 µM does the source give for `CSCC[C@H](NC(=O)c1ccc(C=Cc2cccnc2)cc1-c1ccccc1C)C(=O)OCCN(C)C` [Example 294, {4-[2-(Pyrid-3-yl)ethenyl]-2-(2-methylphenyl)benzoyl}methionine Dimethylaminoethyl Ester] here?
A: 98%

Q: Which inhibition at 10 µM (Inhibition of farnesyltransferase, compound at 1 × 10^−5 M (Table 1)) does the source give for `CC(C)C[C@H](NC(=O)c1ccc(NCc2cnc[nH]2)cc1-c1cccc2ccccc12)C(=O)O` [Example 388, 4-[N-(1H-Imidazol-4-yl)methylamino-2-(1-naphthyl)benzoyl]leucine] here?
A: > 50%
